Data from US20040219105A1, “Human hookworm model and method for maintaining human hookworm in a non-human primate” (priority 2003, published 2004).

Test system: whole blood basophils
Test: Whole blood basophil histamine release (Histamine Assay Kit)
Format: cell-based, marmoset (Callithrix jacchus)
Conditions: whole blood of hookworm-infected animals; 5 out of 6 animals
Method: Furthermore, whole blood basophils collected from the animals were challenged for their ability to release histamine. One hundred (100) μl of whole blood was collected from the primates into heparinized tubes and the volume was made up to 500 μl using PIPES buffer (0.01 M Piperazine-N′N-bis[2-ethaneculfonic acid], 0.14 M sodium acetate, 5 mM potassium acetate, 0.1% glucose, 1 mM CaCl2 and 0.03% human serum albumin, pH 7.4). Spontaneous histamine release was assessed following incubation for 1 h at 37° C., while total histamine release was assessed when 50 μl of whole blood in 450 μl dH2O was freeze-thawed three times. […] Histamine released in each whole blood challenge was detected using a Histamine Assay Kit (Hycor Biomedical Ltd.). […] Antibody binding was visualised by the addition of 100 μl of 1 mg/ml of p-nitrophenyl phosphate (pNPP) substrate The plates were developed for 1 h at 37° C. and the absorbance measured at 405 nm using a Dynex MRX absorbance microplate reader (DYNEX Technologies, Chantilly, Va.). For all samples and calibrators the percentage binding was determined by the following: [formula]
A standard curve was constructed by plotting the Percentage Binding against concentration for each histamine calibrator, and the levels of histamine in each challenge were determined from this curve.

## calreticulin
  basophil histamine release: significant histamine release
